In patent US20190150447A1, “CONDENSED HETEROCYCLIC COMPOUND” (Sumitomo Chemical Company, Limited, priority 2015, published 2019):

Columns and labels:
Assay type in all cases: in vivo
[1] = test system: common house mosquito (Culex pipiens pallens); assay: Test Example 6: larvae released into diluted solution, common house mosquito; conditions: 24 h, last instar larvae in diluted solution, after 1 day, read-out: mortality of insects
Description: (§1) The test compound is made to a formulation according to the method described in the Formulation Example 5, and thereto is added water to prepare a diluted solution containing a prescribed concentration of the test compound.
Thirty (30) heads of last instar larvae of common house mosquito (Culex pipiens pallens) are released into the diluted solutions and after 1 day, the life and dead of common house mosquito is examined, and the mortality of insects is calculated by the following equation.
Mortality of insects (%)=((Number of dead insects/Numboer of test insects)×100

[2] = test system: cotton aphid (Aphis gossypii); assay: Test Example 1: foliar spray on cucumber seedling against cotton aphid; conditions: 500 ppm; spray 10 mL/seedling on cucumber; all stages of life; after 5 days
Description: The test compounds is made to a formulation according to the method described in the Formulation Example 5, and thereto is added water containing 0.03 v/v % of a spreader to prepare a diluted solution containing a prescribed concentration of the test compound. Cucumber (Cucumis sativus) seedling (on the developmental stage of the second true leaf) is planted in a plastic cup, and approximately 30 heads of cotton aphid (Aphis gossypii) (all stages of life) are released onto the leaves of the cucumber. After 1 day, the diluted solutions were sprayed into the seedling in a ratio of 10 mL/seedling. After 5 days, the number of the surviving insects is examined and the controlling value is calculated by the following equation. Controlling value (%)={1−(Cb×Tai)/(Cai×Tb)}×100 wherein the symbols in the equation represent the following descriptions. Cb: Number of the test insects in untreated group; Cai: Number of the surviving insects at the time of the investigation in untreated group; Tb: Number of the test insects in treated group; Tai: Number of the surviving insects at the time of the investigation in treated group; Here the “untreated group” represents a group where the similar treatment procedure to that of the treated group except not using the test compound is done.

[3] = test system: cabbage moth (Plutella xylostella); assay: Test Example 3: foliar spray on cabbage seedling against cabbage moth; conditions: 120 h, spray 20 mL/seedling on cabbage, second instar larvae, after 5 days, read-out: mortality of insects
Description: (§2) The test compound is made to a formulation according to the method described in the Formulation Example 5, and thereto is added water containing 0.03 v/v % of a spreader to prepare a diluted solution containing a prescribed concentration of the test compound.
The diluted solutions are sprayed into the cabbage (Brassicae oleracea) seedling (on the developmental stage of the second to third true leaf) that is planted in a container in a ratio of 20 mL/seedling. Thereafter, the stem and leaf thereof is cut out and then is installed into the container that is covered with the filter paper. Five (5) heads of cabbage moth (Plutella xylostella) at the second instar larval stages are released into the cup. After 5 days, the surviving insects are counted, and the mortality of insects is calculated by the following equation.
Morality (%)={1−the number of the surviving insects/5}×100

[4] = test system: housefly (Musca domestica); assay: Test Example 4: filter paper/sucrose bait test against housefly; conditions: 0.7 mL on filter paper, female adult, after 24 hours, read-out: mortality of insects
Description: as §1
The bottom of the plastic cup having 5.5 cm diameter is matted with the same size of a filter paper, and 0.7 mL of the diluted solution is added dropwise to the filter paper, and 30 mg sucrose as bait is placed in the cup uniformly. Ten (10) heads of female adult housefly (Musca domestica) are released into the plastic cup, and the cup is covered with the lid. After 24 hours, the life and death of housefly is examined and the mortality of insects is determined. The mortality of insects is calculated by the following equation.
(§3) Mortality of insects (%)=(Number of dead insects/Number of test insects)×100

[5] = test system: German cockroach (Blattella germanica); assay: Test Example 5: filter paper/sucrose bait test against German cockroach; conditions: 144 h, 0.7 mL on filter paper, male, after 6 days, read-out: mortality of insects
Description: as §1
The bottom of the plastic cup having 5.5 cm diameter is matted with the same size of a filter paper, and 0.7 mL of the diluted solution is added dropwise to the filter paper, and 30 mg sucrose as bait is placed in the cup uniformly. Two (2) heads of male German cockroach (Blattella germanica) are released into the plastic cup, and the cup is covered with the lid. After 6 days, the life and death of German cockroach is examined and the number of died insects is counted, and the mortality of insects is calculated by the following equation.
as §3

[6] = test system: brown planthopper (Nilaparvata lugens); assay: Test Example 2: foliar spray on rice seedling against brown planthopper; conditions: 144 h, spray 10 mL/seedling on rice, 3rd instar larvae, after 6 days, read-out: mortality of insects
Description: as §2
Rice (Oryza sativa) seedling (on the developmental stage of the second true leaf) is planted in a plastic cup, and the diluted solutions are sprayed into the seedling in a ratio of 10 mL/seedling. Thereafter, 20 heads of 3rd instar larvae of brown planthopper (Nilaparvata lugens) are released onto the rice leaves. After 6 days, the morality is calculated by the following equation.
Morality (%)={1−the number of the surviving insects/20}×100

CCS(=O)(=O)c1ccc(-n2cncn2)nc1-c1nc2cc(C(F)(F)F)ncc2n1C [Present compound 1]
mortality at 3.5 ppm [1]: 91%
controlling value [2]: 100%
mortality at 500 ppm [3]: 100%
mortality at 500 ppm [4]: 100%
mortality at 500 ppm [5]: 100%
mortality at 500 ppm [6]: 100%
